Laboratory results as given in patent US9943563B2, “Compositions and methods for treating vitiligo” (Stealth Peptides International, Inc., priority 2013, dated 2018).
“Also recorded” adds a separate entry of the source. Square brackets hold non-standard residues; d marks the D form. Ends that are not written are not given here.

Legend:
[1] = test system: melanocytes from human subjects diagnosed with vitiligo (VHM); experiment: ATP production of melanocytes (fluorimetric determination); format: cell-based; details: 2 μM added each day for 3 days, vs untreated (0 μM)
Description: Melanocytes were isolated and cultured from two human patients diagnosed with vitiligo (VHM). Cultured melanocytes from each patient were divided into two groups, wherein each group was treated with D-Arg-2′,6′-Dmt-Lys-Phe-NH2 at 0 μM and 2 μM. D-Arg-2′,6′-Dmt-Lys-Phe-NH2 was added to the growth media each day for 3 days. After 3 days, the melanocytes were lysed and ATP levels were measures by fluorimetric determination. Each assay was performed in triplicate.

[2] = test system: melanocytes from human subjects diagnosed with vitiligo (VHM); experiment: Mitochondrial membrane potential of melanocytes (JC-1 probe); format: cell-based; details: peptide at 1.5 μM and 2.0 μM added each day for 7 days, vs 0 μM and untreated NHM
Description: Cultured melanocytes from each patient were divided into three groups, wherein each group was treated with D-Arg-2′,6′-Dmt-Lys-Phe-NH2 at 0 μM, 1.5 μM, and 2 μM. D-Arg-2′,6′-Dmt-Lys-Phe-NH2 added to the growth media each day for 7 days. After 7 days, mitochondrial membrane potential (ΔΨm) of the melanocytes were assessed with a JC-1 probe (see, e.g., JC-1 Mitochondrial Membrane Potential Assay Kit, Cayman Chemical Co., Ann Arbor, Mich.).

[3] = test system: adoptive transfer mouse model of vitiligo; experiment: Epidermal depigmentation in an adoptive transfer mouse model of vitiligo; format: in vivo; details: adoptive transfer vitiligo mice, 0.25 mg/kg/day for four weeks; tail, nose, footpad; vs untreated
Description: Vitiligo mice described in Harris et al., Journal of Investigative Dermatology, 132: 1869-1876 (2012) are obtained. This adoptive transfer mouse model of vitiligo recapitulates the human condition by inducing epidermal depigmentation while sparing the hair. These mice are subdivided into 2 groups. Group I mice are administered a daily dose of 0.25 mg/kg/day of D-Arg-2′,6′-Dmt-Lys-Phe-NH2 for four weeks whereas Group II vitiligo mice are treated with drug vehicle and serve as controls. The loss of pigmentation in epidermal tissues such as the tail, nose and footpad is monitored via light microscopy.

mu-opioid receptor = mu-opioid receptor (Homo sapiens, UniProt P35372); details: stated in the description, no test described; cited from earlier work
mu-opioid receptor, sequence (P35372 whole entry, species assumed): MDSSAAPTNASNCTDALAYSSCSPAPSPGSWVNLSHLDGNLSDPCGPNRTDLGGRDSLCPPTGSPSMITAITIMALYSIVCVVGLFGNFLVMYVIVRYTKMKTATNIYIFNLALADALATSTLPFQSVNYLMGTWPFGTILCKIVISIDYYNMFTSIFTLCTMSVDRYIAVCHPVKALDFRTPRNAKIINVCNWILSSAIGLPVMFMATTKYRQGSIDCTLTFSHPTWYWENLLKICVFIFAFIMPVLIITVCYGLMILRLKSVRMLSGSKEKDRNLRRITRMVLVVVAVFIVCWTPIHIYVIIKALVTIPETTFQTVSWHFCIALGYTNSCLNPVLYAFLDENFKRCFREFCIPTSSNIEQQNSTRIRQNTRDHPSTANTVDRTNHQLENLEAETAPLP

[4] = test system: autologous vitiligo skin explants; experiment: T-cell accumulation and cytotoxic activity in autologous vitiligo skin explants; format: in vivo, human; details: vitiligo patients, 0.25 mg/kg/day for twelve weeks, perilesional T-cells co-cultured with autologous skin explants 2 days
Description: Active vitiligo patients are subdivided into 2 groups. Group I subjects are administered a daily dose of 0.25 mg/kg/day of D-Arg-2′,6′-Dmt-Lys-Phe-NH2 for twelve weeks whereas Group II vitiligo subjects are treated with drug vehicle and serve as controls. Punch-biopsies are obtained flanking the depigmented macule from Group I and Group II vitiligo subjects. These biopsies are cultured to promote T-cell growth according to the procedures described in Van Den Boom et al., Journal of Investigative Dermatology, 129: 2220-2232 (2009). The ability of these perilesional T-cells to infiltrate and actively kill melanocytes within the skin tissue microenvironment is tested using skin explant assays. Autologous skin explants are generated according to the procedures described in Van Den Boom et al., Journal of Investigative Dermatology, 129: 2220-2232 (2009). Perilesional T-cells are co-cultured with normally pigmented autologous skin explants for 2 days. T-cells are allowed to infiltrate the skin explants and migrate toward the melanocytes located at the dermal-epidermal junction. Skin explant cryosections are analyzed for the presence of infiltrated T-cells, melanocytes, and apoptosis by immunohistochemistry or immunofluorescence as described in Van Den Boom et al., Journal of Investigative Dermatology, 129: 2220-2232 (2009).

vitiligo mice = experiment: Progressive depigmentation in the pelage of the vitiligo mouse model; format: in vivo; details: 0.25 mg/kg/day for four weeks before plucking, 2 weeks after plucking dorsal hairs, vs untreated
Description: Vitiligo mice described in Lerner et al., Journal of Investigative Dermatology, 87: 299-304 (1986) are obtained. Vitiligo mice are subdivided into 2 groups. Group I mice are administered a daily dose of 0.25 mg/kg/day of D-Arg-2′,6′-Dmt-Lys-Phe-NH2 for four weeks before plucking dorsal hairs whereas Group II vitiligo mice are treated with drug vehicle before plucking. The regrowth of amelanotic hairs is monitored via light microscopy.

[5] = test system: plasma membrane of several mammalian cell types; details: energy-independent manner; cited from earlier work

D-Arg-2′,6′-Dmt-Lys-Phe-NH2
ATP production of VHM melanocytes [1]: elevated ATP production levels; also recorded: increased the ATP production
mitochondrial membrane potential (ΔΨm) of VHM melanocytes [2]: returned the mitochondrial membrane potential of the VHM melanocytes to levels found in untreated NHM melanocytes; also recorded: increased the mitochondrial membrane potential
mitochondrial membrane potential (ΔΨm) of VHM melanocytes ([2]; listed as D-Arg-2′6′-Dmt-Lys-Phe-NH2): nearly doubled
severity of depigmentation in epidermal tissues [3]: reduced severity of depigmentation
mu-opioid receptor agonist activity (mu-opioid receptor): does not have mu-opioid receptor agonist activity
melanocyte survival rates in skin explants [4]: greater than untreated vitiligo explants
rate of progressive depigmentation (vitiligo mice): reduced rate of progressive depigmentation

F[dR]FK-NH2
mu-opioid receptor agonist activity (mu-opioid receptor): does not have mu-opioid receptor agonist activity

2′,6′-Dmt-D-Arg-Phe-Lys-NH2
penetration of the plasma membrane [5]: readily penetrates the plasma membrane

Tyr-D-Arg-Phe-Lys-NH2
mu-opioid receptor agonist activity (mu-opioid receptor): has mu-opioid receptor agonist activity
